{"source": "paper PMC11851449", "about": "“Blm10-Based Compounds Add to the Knowledge of How Allosteric Modulators Influence Human 20S Proteasome” (ACS Chemical Biology, 2025)", "key": {"human 20S proteasome [1]": {"test_system": "T1, human 20S proteasome", "T1 construct": "20S proteasome was isolated from human erythrocytes; from tissue; host or cells: human erythrocytes", "test": "C-L peptidase activity of latent h20S probed with Z-LLE-AMC", "assay_type": "biochemical", "details": "10 μM bortezomib", "procedure": "(§1) The capacity of influencing the human 20S proteasome was examined using the latent enzyme isolated from human erythrocytes. Boc-LRR-AMC, Z-LLE-AMC, and Suc-LLVY-AMC fluorogenic substrates (Enzo Life Sciences Inc.) were used for assessment of the trypsin-, caspase-, and chymotrypsin-like activities, respectively. As an additional probe, we utilized a homemade FRET-type substrate DabEDS (Lys(Dabcyl)-[…]EDANS)-Gly[36]). Stock solutions of the substrates and modulators were prepared in dimethyl sulfoxide (DMSO). […] The activity assays were performed in a 96-well plate format in 50 mM Tris/HCl, pH 8.0. The CP was used at a final concentration of 0.002 mg mL^–1 (2.8 nM). The final concentrations of LLVY, LRR, and LLE substrates were 100 μM and DabEDS 15 μM. The concentration of reagents in the tests with inhibitors was as follows: 10 μM bortezomib (tebu-bio), 50 μM leupeptin (Roth), and 10 μM activators. The release of the aminomethylcoumarin (AMC) reporter group was followed by monitoring the fluorescence emission at 460 nm (λex was 380 nm). DabEDS hydrolysis was detected by measuring the emission at 493 nm, while the excitation wavelength was set at 335 nm. Fluorescence measurements were carried out using an Infinite M200 Pro plate reader (Tecan), every 2 min for up to 60 min at 37 °C. All activity assays were performed in at least three independent replicates."}, "human 20S proteasome [2]": {"test_system": "T1, human 20S proteasome", "test": "ChT-L peptidase activity of latent h20S probed with Suc-LLVY-AMC", "assay_type": "biochemical", "details": "10 μM bortezomib, Suc-LLVY-AMC 100 μM; activators could not overcome the inhibition", "procedure": "as §1"}}}
{"smiles": "CC(C)C[C@H](NC(=O)[C@H](Cc1ccccc1)NC(=O)c1cnccn1)B(O)O", "note": "[bortezomib]", "values": [{"measurement": "inhibition of h20S C-L activity (in words)", "setting": "human 20S proteasome [1]", "value": "completely blocked the activity of the ChT-L and C-L"}, {"measurement": "inhibition of h20S ChT-L activity (in words)", "setting": "human 20S proteasome [2]", "value": "complete loss of proteasome activity"}]}
